Data set [1] has as its system non-cancer cells. As to the kind of experiment: Viability of non-cancer cells (RAW264.7, HEK293T, HMEC, HUVEC), overall statements. Format: cell-based. The text has this: First, we studied the activity of the melittin peptides on the viability of non-cancer cells. The toxicity of all melittin variants was investigated in monocyte/macrophage-like cells (RAW264.7), human embryonic kidney 293 cells (HEK293T), human microvascular endothelial cells (HMEC), and primary human umbilical vein endothelial cells (HUVECs).
For assessing the cytotoxicity of all peptides, various cell types and assays were utilized. To determine the cell viability of HEK293T and RAW246.7 cells, the Orangu^TM assay (Cell Guidance Systems Ltd., Cambridge, UK) was used, as previously described. 2 × 10^5 HEK293T or 2 × 10^5 RAW246.7 were seeded in 96-well plates. […] After incubation, absorbance was measured at a wavelength of 450 nm with a reference at 650 nm at an EnSpire 2300 Multimode Plate Reader (Perkin Elmer, Lübeck, Germany). To calculate cell viability, the absorbance of vehicle-treated cells was set to 100%, and the melittin derivates-treated samples were correlated to them.
HMECs (2000 cells/well) were seeded into collagen-coated 96-well plates and grown for 24 h. […] Absorbance was measured at 590 nm using a plate reader (Infinite F200Pro, Tecan, Männedorf, Switzerland). The proliferation percentage was calculated by normalizing to the untreated control (24 h) and compared to the DMSO control (0.03%) of 72 h incubation. […]

The subject of data set [2] is MDA-MB-231 cells. As to the kind of experiment: Proliferation assay (crystal violet) in MDA-MB-231 cells. Particulars: n = 2; for anti-proliferative activity, 72 h: MDA-MB-231, 25 µg/mL, crystal violet. It is filed as cell-based, human. Here is the method: Figure 5 Anti-proliferative and apoptotic effect of melittin derivates on the triple-negative breast cancer cell line MDA-MB-231. (A) For the proliferation assay, cells were grown in low density and were treated after 24 h with melittin peptides at a concentration of 25 µg/mL for 72 h. Cells were stained with crystal violet solution. The amount of DNA-bound crystal violet was detected by absorbance measurements. (B) Melt3, 4, and Xac4, which are non-toxic to healthy cells, were further used to test effects on proliferation at 24 h (left) and 48 h (right) at different concentrations. (C) The effects on apoptosis were detected by flow cytometry after 24 h (left), 48 h (middle), and 72 h (right) of treatment. The number of apoptotic cells was determined by staining with propidium iodide (PI). Data are expressed as mean ± SEM. n = 2, * p ≤ 0.05 versus control. Sts, staurosporin 1 µM.
HMECs (2000 cells/well) were seeded into collagen-coated 96-well plates and grown for 24 h. Then, they were treated with melittin peptides. Treated cells were cultured for 72 h, whereas untreated control cells, directly after 24 h, were fixed with a methanol-ethanol (2:1) solution and washed with PBS before they were stained using a crystal violet solution (20% methanol). Similarly, at the end of incubation time, cells treated with melittin peptides were fixed, stained, and unbound crystal violet was removed by washing with distilled water. Finally, cells were left to air dry, and DNA-bound crystal violet was dissolved using an acetic acid solution (20%, Sigma-Aldrich, Steinheim, Germany). Absorbance was measured at 590 nm using a plate reader (Infinite F200Pro, Tecan, Männedorf, Switzerland). The proliferation percentage was calculated by normalizing to the untreated control (24 h) and compared to the DMSO control (0.03%) of 72 h incubation. Similarly, MDA-MB-231 cells (6000 cells/well) were seeded into 96-well plates, and their proliferation ability under treatment conditions was tested as described above.

For data set [3], the system named is HEK293T cells. Put plainly: Cell viability assay (WST-8/Orangu formazan) in HEK293T cells. It is filed as cell-based, human. The settings on record: 25 µg/mL, 24 h, WST-8 formazan absorbance, n = 4. How it is done:
(§1) Figure 1 Toxicity characterization of cells treated with melittin peptides. (A,B) For the viability assay, RAW264.7 (A) or HEK293T (B) cells were treated with bee venom compounds in the indicated concentrations for 24 h. Cells were incubated with WST-8 and the formed formazan was detected by absorbance measurements. (C) For the proliferation assay, HMEC-1 cells were grown in low density and treated after 24 h with the indicated peptide (25 µg/mL) for 72 h. Cells were stained with crystal violet solution. The amount of DNA-bound crystal violet was detected by absorbance measurements. (D) The number of sub-diploidic cells was determined by staining with propidium iodide (PI) and quantified to assess apoptosis of HUVECs. Data are expressed as mean ± SEM. (A) n = 3, (B) n = 4, (C) n = 2–3, (D) n = 2. * p ≤ 0.05 versus control.
For assessing the cytotoxicity of all peptides, various cell types and assays were utilized. […] After incubation, absorbance was measured at a wavelength of 450 nm with a reference at 650 nm at an EnSpire 2300 Multimode Plate Reader (Perkin Elmer, Lübeck, Germany). To calculate cell viability, the absorbance of vehicle-treated cells was set to 100%, and the melittin derivates-treated samples were correlated to them.

In data set [4] the test system is HMEC-1 cells. As to the kind of experiment: Proliferation assay (crystal violet) in HMEC-1 cells. Format: cell-based, human. Particulars: HMEC-1, 25 µg/mL, 72 h, n = 2–3. Here is the method:
as §1
HMECs (2000 cells/well) were seeded into collagen-coated 96-well plates and grown for 24 h. Then, they were treated with melittin peptides. […] Absorbance was measured at 590 nm using a plate reader (Infinite F200Pro, Tecan, Männedorf, Switzerland). The proliferation percentage was calculated by normalizing to the untreated control (24 h) and compared to the DMSO control (0.03%) of 72 h incubation. […]

“Also recorded” adds a separate entry of the source.

On to xylopin [Xac4], for which the “viability of non-cancer (healthy) cells” value in data set [1] (summary statement, Figure 6) is given as “without harming healthy cells”. The “anti-proliferative activity, 72 h” value in data set [2] was “exhibited anti-proliferative activity; also recorded: anti-proliferative effects on breast cancer cells”. Moreover, the “proliferation at 24 h and 48 h, concentration range” value in data set [2] (MDA-MB-231, 24 h and 48 h, different concentrations, Melt4 effect at 10 and 25 µg/mL) was “trend of decreased proliferation”. In data set [3], the “cytotoxicity (cell viability)” value was “showed cytotoxicity”. In data set [4], the proliferation result is recorded as “proliferation was augmented”.
melittin [Melt, reference compound] registered a reduction of viability in data set [1] (Discussion, cell line not given) of 90%. Moreover, in data set [2], the “anti-proliferative activity, 72 h” value is given as “exhibited anti-proliferative activity”. Moreover, the “cytotoxicity (cell viability)” value in data set [3] is reported as “showed cytotoxicity”. Moreover, in data set [4], the proliferation entry was “proliferation was hindered”.

These data come from article PMC9786170, “The Pharmacological Potential of Novel Melittin Variants from the Honeybee and Solitary Bees against Inflammation and Cancer” (Toxins, 2022).
